In series [1] the target is T1, HIV-associated reverse transcriptase (HIV-RT) (Human immunodeficiency virus type 1 group M subtype B, UniProt P04585).
T1 construct: HIV-associated reverse transcriptase (HIV-RT)
Briefly: Inhibition of HIV-associated reverse transcriptase (polymerization of artificial templates). The class given is biochemical. An excerpt:
At first the triphosphates of some compounds according to formula I were investigated for their ability to inhibit the polymerization of artificial templates (such as polyAoligodT and polyColigodG) catalyzed by HIV-associated reverse transcriptase (HIV-RT) according to the method described by A. D. Hoffman et al., Virology 147, 326, 1985. […] FdTTP, FdUTP and FdGTP are among the strongest inhibitors found so far for HIV-RT. In comparison the ID50 for 3'-azidothymidinetriphosphate was estimated under our conditions to be about […].

Series [2] addresses RLV-associated reverse transcriptase. Put plainly: Inhibition of RLV-associated reverse transcriptase. Type of series: biochemical, Rauscher murine leukemia virus.
Series [3] concerns the target T2, cellular DNA polymerase β (Bos taurus, UniProt Q27958).
T2 construct: purified from calf thymus; from tissue; host or cells: calf thymus
Briefly: Effect on cellular DNA polymerase β. The class given is biochemical. To be noted: enzyme purified from calf thymus; read-out: ID50 cellular polymerase β. An excerpt:
(§1) The strong inhibiting effect of 3'-fluoro-substituted deoxynucleotides against HIV-reverse transcriptase can be utilized therapeutically only if the cellular DNA polymerases, especially the DNA polymerase α which is required for the replication of the cellular DNA, remain substantially unaffected. […] The ID50 values for the DNA polymerase β responsible for cellular DNA repair vary between 1,8-15 μm. Both enzymes cellular DNA polymerase α and β were purified from calf thymus and tested according to the method of E. Matthes et al., Biomed. Biochim. Acta 44. K63 (1985).

Series [4] has as its target T3, cellular DNA polymerase α (Bos taurus, UniProt A0AAA9TD94).
T3 construct: purified from calf thymus; from tissue; host or cells: calf thymus
T3 sequence (A0AAA9TD94 1-1441): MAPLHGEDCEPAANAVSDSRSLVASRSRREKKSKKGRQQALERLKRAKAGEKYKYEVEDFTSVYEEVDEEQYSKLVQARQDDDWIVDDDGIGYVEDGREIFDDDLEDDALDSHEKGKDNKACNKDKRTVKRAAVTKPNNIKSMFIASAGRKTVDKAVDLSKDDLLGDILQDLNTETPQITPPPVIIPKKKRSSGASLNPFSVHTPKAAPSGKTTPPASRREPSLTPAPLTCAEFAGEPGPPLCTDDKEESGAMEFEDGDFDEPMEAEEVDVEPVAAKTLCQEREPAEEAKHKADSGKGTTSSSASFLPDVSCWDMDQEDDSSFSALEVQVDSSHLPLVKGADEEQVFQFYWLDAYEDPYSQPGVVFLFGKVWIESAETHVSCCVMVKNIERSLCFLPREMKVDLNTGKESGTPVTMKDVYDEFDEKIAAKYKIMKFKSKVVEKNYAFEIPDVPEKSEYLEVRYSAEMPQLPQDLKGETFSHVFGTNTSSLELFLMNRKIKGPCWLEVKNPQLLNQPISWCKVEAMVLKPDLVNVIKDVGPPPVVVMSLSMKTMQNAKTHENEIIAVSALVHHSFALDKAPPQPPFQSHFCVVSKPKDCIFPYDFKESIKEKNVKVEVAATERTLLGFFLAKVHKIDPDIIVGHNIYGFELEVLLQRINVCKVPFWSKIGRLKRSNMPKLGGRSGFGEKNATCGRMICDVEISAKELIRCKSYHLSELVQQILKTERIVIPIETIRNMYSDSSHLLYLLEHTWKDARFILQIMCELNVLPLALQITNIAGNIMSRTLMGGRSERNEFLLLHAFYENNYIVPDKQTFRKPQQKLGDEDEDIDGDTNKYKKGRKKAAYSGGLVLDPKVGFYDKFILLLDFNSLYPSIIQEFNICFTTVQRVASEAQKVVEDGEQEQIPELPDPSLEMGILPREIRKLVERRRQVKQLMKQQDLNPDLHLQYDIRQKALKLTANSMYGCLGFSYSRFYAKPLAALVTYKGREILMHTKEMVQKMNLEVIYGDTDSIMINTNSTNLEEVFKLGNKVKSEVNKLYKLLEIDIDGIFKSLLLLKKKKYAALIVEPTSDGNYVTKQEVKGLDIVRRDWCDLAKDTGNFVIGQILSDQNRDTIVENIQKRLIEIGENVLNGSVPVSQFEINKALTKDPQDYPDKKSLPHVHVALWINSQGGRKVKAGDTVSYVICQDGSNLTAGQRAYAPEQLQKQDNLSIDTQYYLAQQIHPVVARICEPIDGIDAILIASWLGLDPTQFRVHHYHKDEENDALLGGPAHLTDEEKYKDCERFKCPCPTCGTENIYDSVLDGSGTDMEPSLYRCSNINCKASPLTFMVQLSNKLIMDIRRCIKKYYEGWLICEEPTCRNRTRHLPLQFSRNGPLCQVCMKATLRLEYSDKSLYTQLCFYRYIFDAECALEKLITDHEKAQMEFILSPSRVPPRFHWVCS
Put plainly: Effect on cellular DNA polymerase α. As to conditions: enzyme purified from calf thymus; read-out: ID50 cellular polymerase α. The class given is biochemical.
From the text: as §1

Series [5] relates to REH acute lymphatic leukemia. Put plainly: Inhibition of proliferation of REH cells. Type of series: cell-based. As to conditions: Homo sapiens, dose required to reduce the cell number by 50%, read-out: CD50 (the source's name). An excerpt: (§2) Originally FTdR was developed as a cytostatic agent (P. Langen et al., Acta biol. med. Germ. 23, 759, 1969; and U.S. Pat. No. 3,775,397) and, therefore, its cytostatic efficacy has been examined in extensive prior studies. […] Ehrlich-mouse-ascites-carcinoma cells (EMAC) represents an exception to that finding, and this is probably connected to its high capability of phosphorylation of FTdR, which is 10 times higher than in human cells. The fast reversibility of the cytostatic effects on EMAC cells was regarded as a special property of this compound (P. Langen et al., Europ. J. Cancer. 14. 349, 1978). The antiproliferative effect of FTdR and FddUrd, and in comparison thereto of N3 -TdR were tested on human cell lines with regard to a possible use in humans. […] When FTdR is compared to N3 -TdR. The effects are very similar, however somewhat lower in each case for N3 -TdR than for FTdR.
(§3) CD50 : inhibitory dose required to reduce the cell number by 50%

In series [6] the test system is K-37 immortalized T-cells. Put plainly: Inhibition of proliferation of K-37 cells. The class given is cell-based. To be noted: Homo sapiens, T-cell; dose required to reduce the cell number by 50%, K-37; read-out: CD50 (the source's name).
From the text: as §2, §3

For a further series, the system named is H9 immortalized T-cells. Put plainly: Inhibition of proliferation of H9 cells. The class given is cell-based. To be noted: Homo sapiens, T-cell; dose required to reduce the cell number by 50%, H9; read-out: CD50 (the source's name).
From the text: as §2, §3

A further series can be described thus: in vitro. As to conditions: human, mt-4 cells. As for the experimental part:
(§4) Under in vitro conditions immortalized T-lymphocytes can be killed within few days by the cytopathic effect of HIV. […] For this purpose about 20,000 MT-4 cells (Harada et al. Science 229, 563 (1985)) Were infected with HIV (titer: 0.04 m.o.i.) and incubated in the presence or absence of varying concentrations of compounds according to formula I, with 10% fetal calf serum (FCS) in 200 μl RPMI medium. After 6 days of incubation the viable cells were counted that were excluded from trypan blue staining.

Series [7] concerns K-562 acute myeloic leukemia. Put plainly: Inhibition of proliferation of K-562 cells. As to conditions: Homo sapiens, K562; dose required to reduce the cell number by 50%, K-562; read-out: CD50 (the source's name). The class given is cell-based.
From the text: as §2, §3

The next series has as its system HIV. Put plainly: Inhibition of the cytopathic effect of HIV on MT-4 cells. Type of series: cell-based. As to conditions: Human immunodeficiency virus 1, MT4, 144 h; MT-4 cells, 6 days of incubation; read-out: 50% antiviral dose (ED50). As for the experimental part: as §4
(Protection from cytopathic effect is a common read-out in antiviral testing.)

Consider `Cc1cn([C@H]2C[C@H](F)[C@@H](COP(=O)(O)OP(=O)(O)OP(=O)(O)O)O2)c(=O)[nH]c1=O` [FdTTP, 2'-3'-dideoxy-3'-fluorothymidine-5'-triphosphate], for which, in [1], the “mode of action (type of inhibition)” value is recorded as “competitive type of inhibition”. The IC50 in [1] (read-out: ID50 HIV-associated reverse transcriptase) was 50 nM; in series [3], 2200 nM; in series [4], > 200 µM. Also, in [2], the “ID50 RLV-associated reverse transcriptase” value was determined as 0.5 µM. Also, the “RLV-associated RT less sensitive to the inhibitor than HIV-associated RT” value in [2] (ratio of ID50 values) was determined as 10 times.

For the molecule `O=c1ccn([C@H]2C[C@H](F)[C@@H](CO)O2)c(=O)[nH]1` [FddUrd, 2'-3'-dideoxy-3'-fluorouridine], the IC50 in series [5] is > 9 mM; in [6], > 1 mM; with H9 immortalized T-cells, > 2.5 mM; in [7], > 1 mM. The molecule further registered a 50% cytotoxic concentration (CC50) at 144 h in the series “in vitro” of 75 µM. The EC50 with HIV came out at 275 nM.

A word on the CC50: it is the concentration at which the toxic effect on the cells reaches its halfway point.

The record behind these values is patent US5153180A, “Fluorinated nucleosides and process for treating retrovirus infections therewith” (priority 1990, dated 1992).
